Literature values as cited in PMC6482886 (Chemical Science, 2019).

Experiments:
hDMX = target: T1, hDMX (Homo sapiens, UniProt O15151)
T1 sequence (O15151 1-392): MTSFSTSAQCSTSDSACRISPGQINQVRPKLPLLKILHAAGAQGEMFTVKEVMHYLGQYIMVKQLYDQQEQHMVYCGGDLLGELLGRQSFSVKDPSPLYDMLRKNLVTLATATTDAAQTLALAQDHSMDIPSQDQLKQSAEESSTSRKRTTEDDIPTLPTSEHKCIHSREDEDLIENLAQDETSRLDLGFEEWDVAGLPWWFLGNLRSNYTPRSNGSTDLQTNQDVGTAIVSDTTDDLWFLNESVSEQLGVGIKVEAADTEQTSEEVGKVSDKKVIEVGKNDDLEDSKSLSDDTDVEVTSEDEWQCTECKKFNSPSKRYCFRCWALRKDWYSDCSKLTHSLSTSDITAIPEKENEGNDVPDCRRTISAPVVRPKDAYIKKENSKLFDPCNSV

binding affinity to hDMX compared with p53 (hDMX) | Compound | cellular IC50 / cellular activity reported in the literature
 | N#Cc1c2ccc(N)cc2nc2cc(N)ccc12 [CTX1] | tens to hundreds of micromolar range
less affinity to hDMX than p53 | CCOc1cc(/C=C2/C(=O)N(c3ccccc3)N=C2C)cc(Cl)c1OCC(=O)OC [SJ-172550] | 
